From patent US9586999B2, “Methods and compositions related to improving properties of pharmacological agents targeting nervous system” (University of Utah Research Foundation, priority 2006, dated 2017)
“Also recorded” adds a separate entry of the source.

Tests used:
Format in all cases: in vivo
[1] = tested on: hippocampal kindled seizures; test: Hippocampal kindled rat model of partial epilepsy; settings: i.p.; decreased from 5
sound-induced seizures = test: Frings audiogenic seizure-susceptible mouse model of reflex epilepsy; settings: i.p., 4 mg/kg for time course, dose-response 1 h after dosing
Text: (§1) The ability of individual modified peptides to prevent seizures induced by sound in the AGS-susceptible Frings mouse model can be assessed at the time of peak effect (White et al., 1992). For this test, individual mice are placed into a plexiglass cylinder (diameter, 15 cm; height, 18 cm) fitted with an audio transducer (Model AS-ZC; FET Research and Development, Salt Lake City, Utah), and exposed to a sound stimulus of 110 decibels (11 KHz) delivered for 20 seconds. Sound-induced seizures are characterized by wild running followed by loss of righting reflex with forelimb and hindlimb tonic extension. Mice not displaying hindlimb tonic extension are considered protected.
The two modified galanin analogs (GAL-BBB1 and GAL-BBB2) were administered i.p. to a group of Frings audiogenic seizure susceptible mice in a dose of 4 mg/kg. At various times after administration (i.e., 15, 30, 60, 120, and 240 min) each mouse was placed into a cylindrical test chamber fitted with an audio transducer and challenged with a high-intensity sound stimulus (110 dB, 11 KHz for 20 sec). Animals not displaying tonic hind-limb extension were considered protected. […] In a subsequent study, anticonvulsant efficacy was quantitated at the time to peak effect (i.e., 1 h) in a dose-response study.
as §1, with “analogs” for “peptides”
At various times after administration (i.e., 15, 30, 60, 120, and 240 min) each mouse was placed into a cylindrical test chamber fitted with an audio transducer and challenged with a high-intensity sound stimulus (110 dB, 11 KHz for 20 sec).

corneal kindling = test: Mouse corneal kindling acquisition
Experimental: CF#1 mice were randomized to receive either vehicle (0.9% saline) or NAX-5055. Mice in the NAX-5055 group received two doses of NAX-5055 twelve (12 h) and 1 h prior to their first kindling stimulation. One hour (1 h) prior to each subsequent stimulation, mice in the NAX-5055 treated group received another dose of NAX-5055 (4 mg/kg, i.p.). Mice were stimulated twice daily for 16 days. Results are expressed as the mean seizure score per stimulation. As noted above, the results for the NAX-5055 treated mice segregated into two populations; i.e., sensitive (green line) and insensitive (blue line).
Mice treated with NAX-5055 (see legend to Figure X for experimental details) segregated into two treatment groups; i.e., NAX-5055 sensitive and NAX-5055 insensitive. Results are expressed as the number of stimulations required to reach a particular seizure score+/−S.E.M.; i.e., 1 to 5. […] One Way ANOVA, p<0.0209; post hoc analysis: saline vs. NAX-5055 insensitive, p>0.05; NAX-5055 sensitive vs. NAX-5055 insensitive, p<0.05.
Daily electrical stimulation via the cornea results in a stable kindled state within 15-20 days. This is an ideal model to initially assess the ability of selected galanin analogs to prevent kindling acquisition because the amount of peptide required is much lower than what is required for a rat kindling study. Those compounds found to be effective in preventing the acquisition of kindling are subsequently evaluated in a more traditional rat kindling model; i.e., amygdala kindled rat. For the proposed studies two groups of mice (n=8 mice per group) are randomized to receive either vehicle or peptide prior to each kindling stimulation. […] At the time to peak effect (obtained from the 6 Hz study), they are stimulated via corneal electrodes with a subconvulsive current (50 Hz, 3 mA, for 3.0 sec) and observed for the presence or absence of seizure activity. Seizure activity is scored according to the criteria established by Racine et al., (1972). Animals receive two stimulations per day until they display their first Stage 5 behavioral seizure and then once daily until they display stable secondarily generalized seizures (5 consecutive Stage 4-5 seizures). Peptide treatment continues in the experimental group until the point that the control mice become fully kindled. At this point, mice in both groups are permitted a one-week stimulus and treatment-free week. On the 8th day, mice in both groups are stimulated in the absence of peptide or vehicle and their seizure score recorded.
The ability of the blood-brain-barrier penetrant galanin-based neuropeptide NAX-5055 to prevent the development of corneal kindling was studied in CF#1 mice. […] Following stimulation seizure activity was scored on a scale of 0-5 as established by Racine (1972).

[2] = 4 mg/kg i.p. twice daily, NAX-5055 sensitive group

“Sar-Trp-Thr-Leu-Asn-Ser-Ala-Gly-Tyr-Leu-Leu-Gly-Pro-Lys-Lys-(Lys-palm)-Lys-NH2 [NAX 5055]” was tested, and the seizure score [1] was 3, the “anticonvulsant effect against sound-induced seizures” value (shortened to “anticonvulsant effect”) (sound-induced seizures; 4 mg/kg) was “effective; also recorded: time-dependent anticonvulsant activity; also recorded: dose-dependent protection” and the “anticonvulsant effect” value (sound-induced seizures; listed as GAL-BBB2, 4 mg/kg) was “dose-dependent effect”. For the same substance, the “anticonvulsant effect” value (sound-induced seizures; listed as Gal BBB-2, 4 mg/kg) was “time (inset) and dose-dependent protection”, the kindling acquisition (corneal kindling; 4 mg/kg i.p.) was “can delay kindling acquisition” and the “Stage 5 seizures” value (corneal kindling; [2]) was “none of the mice in the NAX-5055 sensitive group reached Stage 5 seizures”. For the same substance, the “more stimulations to reach Stage 2 and Stage 3 seizures” value (corneal kindling; [2]) was 35-40% and the “stimulations required to reach a Stage 1 seizure” value (corneal kindling; [2]) was “two times more stimulations”.
